Patent publication US11518764B2, “Substituted heteroaryls as inhibitors of the BCL6 BTB domain protein-protein interaction” (Ontario Institute for Cancer Research (OICR), priority 2018, dated 2022)

Tests used:
[1] = biological target: BCL6 BTB domain (Homo sapiens (Human), UniProt P41182); assay: Surface plasmon resonance (SPR) assay; type: binding; conditions: BCL6 BTB domain captured on SA chip, single cycle kinetics
[2] = tested on: BCL6 reporter construct (3xBCL6-TK-Luc) in SuDHL4 cells; assay: Cell-based luciferase assay; conditions: Homo sapiens, SU-DHL-4, 48 h, read-out: Luciferase-Assay EC50, uM), SuDHL4-3xBCL6-TK-Luc cells, two days, high dose 10 uM
Description: Cell-Based Luciferase Assay
A BCL6 reporter construct containing three copies of the consensus BCL6 binding site, the TK promoter, and the firefly luciferase gene was stably expressed in SuDHL4 cells after lentivirus infection and selection with Blasticidin. SuDHL4-3×BCL6-TK-Luc cells were seeded into a Viewplate 384-well assay dish at 15,000 cells/well in 25 ul medium (Alpha-MEM high glucose containing 10% FBS, 25 mM HEPES, […] GlutaMAX, 100 ug/ml Normocin, and […] Gentamycin, Invitrogen). A HP D300 digital dispenser was used to dose cells with DMSO or test compounds across a 10-point range of concentrations (high dose of 10 uM), and cultures were grown in a humidified 5% CO2 incubator at 37° C. After two days, plates were removed from the incubator and equilibrated to room temperature. An equal volume of neolite reporter gene assay reagent was added to each well, and samples were processed according to manufacturer's instructions (Perkin Elmer). Luminescent signal was measured using an Envision plate reader equipped with a US-Luminescence detector.

[3] = tested on: Karpas422 cells; assay: Tumor cell growth inhibition assay; type: cell-based; conditions: Homo sapiens, KARPAS-422, 144 h, read-out: Tumor Growth Inhibition in Karpas-422 (IC50, uM), Karpas422 cells, six days, ATPlite
Description: Tumor Cell Growth inhibition Assay
Karpas422 cells were seeded into a 96-well plate at 2,000 cells/well in 150 ul medium (Alpha-MEM containing 10% FBS, […] Normocin, and […] Gentamycin, Invitrogen). A HP D300 digital dispenser was used to dose cells with DMSO or test compounds across a 10-point range of concentrations (high dose of 5 uM), and cultures were grown in a humidified 5% CO2 incubator at 37° C. After six days, plates were removed from incubator and equilibrated to room temperature. An equal volume of ATPlite assay reagent was added to each well, and samples were processed according to manufacturer's instructions (Perkin Elmer). Luminescent signal was measured using an Envision plate reader equipped with a US-Luminescence detector.

| Compound | Kd [1] | EC50 [2] | IC50 [3] |
| --- | --- | --- | --- |
| C[C@H]1COCCN1c1cc(NC(=O)Cn2cc(-c3cc(Cl)c(O)c(C(N)=O)c3)c3c(=O)n(C)c(N4CCC4)nc32)c(Cl)cn1 [Compound I-270, (S)-5-(2-(azetidin-1-yl)-7-(2-((5-chloro-2-(3-methylmorpholino)pyridin-4-yl)amino)-2-oxoethyl)-3-methyl-4-oxo-4,7-dihydro-3H-pyrrolo[2,3-d]pyrimidin-5-yl)-3-chloro-2-hydroxybenzamide] | 63 nM | 2.31 µM | 3.82 µM |
| CN1CC2CCC(C1)N2c1cc(NC(=O)Cn2cc(-c3cc(Cl)c(O)c(C(N)=O)c3)c3c(=O)n(C)cnc32)c(Cl)cn1 [Compound I-348] | 13.4 nM | 0.479 µM | 0.15 µM |
| CC(C)[C@@H]1CN(c2cc(NC(=O)Cn3cc(-c4cc(Cl)c(O)c(C(N)=O)c4)c4c(=O)n(C)cnc43)c(Cl)cn2)CCO1 [Compound I-205] | 43.6 nM | 0.248 µM | 0.457 µM |
| Cc1nc2c(c(-c3cc(Cl)c(O)c(C(N)=O)c3)cn2CC(=O)Nc2cc(N3CCN(C)C[C@@H]3C)ncc2Cl)c(=O)n1C [Compound I-206] | 9.34 nM | 0.122 µM | 0.128 µM |
| CN1CCN(c2cc(NC(=O)Cn3cc(-c4cc(C(N)=O)c(O)c(Cl)c4F)c4c(=O)n(C)cnc43)c(Cl)cn2)CC1 [Compound I-188] | 435 nM | 4.75 µM | 2.95 µM |
| Cn1cnc2c(c(-c3cc(Cl)c(O)c(C(N)=O)c3)cn2CC(=O)Nc2cc(N3CCCC3)nc(F)c2Cl)c1=O [Compound I-418] | 22.1 nM | 0.663 µM | 0.303 µM |
| C[C@@H](CO)Nc1cc(NC(=O)Cn2cc(-c3cc(Cl)c(O)c(C(N)=O)c3)c3c(=O)n(C)cnc32)c(Cl)cn1 [Compound I-198] | 21.7 nM | 5.82 µM | 3.02 µM |
| CN1C(C)(C)CN(c2cc(NC(=O)Cn3cc(-c4cc(C(N)=O)c(O)c(F)c4F)c4c(=O)n(C)cnc43)c(Cl)cn2)CC1(C)C [Compound I-369] | 159 nM | 2.2 µM | 2.8 µM |
| C[C@H]1COCCN1c1cc(NC(=O)Cn2cc(-c3cc(F)c(O)c(C(N)=O)c3)c3c(=O)n(C)ccc32)c(Cl)cn1 [Compound I-137] | 66 nM | 1.34 µM | 1.74 µM |
| Cc1nc2c(c(-c3cc(C(N)=O)c(O)c(F)c3F)cn2CC(=O)Nc2cc(N3CCN(C(C)C)C[C@@H]3C)ncc2Cl)c(=O)n1C [Compound I-380] | 56 nM | 0.59 µM | 0.478 µM |
| C[C@H]1CN(C2COC2)CCN1c1cc(NC(=O)Cn2cc(-c3cc(Cl)c(O)c(C(N)=O)c3)c3c(=O)n(C)cnc32)c(Cl)cn1 [Compound I-345] | 6.15 nM | 0.0927 µM | 0.166 µM |
| Cn1cnc2c(c(-c3cc(C(N)=O)c(O)c(F)c3F)cn2CC(=O)Nc2cc(N3CCCC3)nc(F)c2Cl)c1=O [Compound I-417] | 21.7 nM | 0.478 µM | 0.441 µM |
| COc1ccc(Cl)c(NC(=O)Cn2cc(-c3cc(Cl)c(O)c(C(N)=O)c3)c3c(=O)n(C)cnc32)c1 [Compound I-398] | 82.7 nM | 2.6 µM | 1.3 µM |
| CCN1CCN(c2cc(NC(=O)Cn3cc(-c4cc(F)c(O)c(C(N)=O)c4)c4c(=O)n(C)cnc43)c(Cl)cn2)[C@@H](C)C1 [Compound I-390] | 6.18 nM | 0.0677 µM | 0.0483 µM |
| Cn1cnc2c(c(-c3cc(C(N)=O)c(O)cc3F)cn2CC(=O)Nc2cc(N3C[C@H]4CCO[C@H]4C3)ncc2Cl)c1=O [Compound I-163] | 50.5 nM | 0.572 µM | 0.93 µM |
| CCCN1CCN(c2cc(NC(=O)Cn3cc(-c4cc(C(N)=O)c(O)c(F)c4F)c4c(=O)n(C)cnc43)c(Cl)cn2)[C@@H](C)C1 [Compound I-394] | 38.4 nM | 0.313 µM | 0.269 µM |
| CO[C@@H]1CN(c2cc(NC(=O)Cn3cc(-c4cc(Cl)c(O)c(C(N)=O)c4)c4c(=O)n(C)c(C(F)(F)F)nc43)c(Cl)cn2)C[C@@H]1F [Compound I-386] | 153 nM | 1.01 µM | 0.772 µM |
| C[C@H]1CN(C2COC2)CCN1c1cc(NC(=O)Cn2cc(-c3cc(F)c(O)c(C(N)=O)c3)c3c(=O)n(C)cnc32)c(Cl)cn1 [Compound I-372] | 7.41 nM | 0.233 µM | 0.267 µM |
| CN1CC2(CCN(c3cc(NC(=O)Cn4cc(-c5cc(Cl)c(O)c(C(N)=O)c5)c5c(=O)n(C)cnc54)c(Cl)cn3)C2)C1 [Compound I-482] | 34.3 nM | 4.69 µM | 2.32 µM |
| Cn1cnc2c(c(-c3cc(C(N)=O)c(O)c(F)c3F)cn2CC(=O)Nc2cc(N3C[C@H]4CC[C@@H](C3)N4CC(F)(F)F)ncc2Cl)c1=O [Compound I-475] | 50.5 nM | 0.484 µM | 0.576 µM |
| Cn1cnc2c(c(-c3cc(Cl)c(O)c(C(N)=O)c3)cn2CC(=O)Nc2cc3c(cc2Cl)OCC(=O)N3CCN2CCOCC2)c1=O [Compound I-214] | 31.2 nM | 1.35 µM | 0.855 µM |
| C[C@H]1CN(C)CCN1c1cc(NC(=O)Cn2cc(-c3cc(F)c(O)c(C(N)=O)c3)c3c(=O)n(CC#Cc4cnn(C)c4)cnc32)c(Cl)c(F)n1 [Compound I-432, (S)-5-(7-(2-((3-chloro-6-(2,4-dimethylpiperazin-1-yl)-2-fluoropyridin-4-yl)amino)-2-oxoethyl)-3-(3-(1-methyl-1H-pyrazol-4-yl)prop-2-yn-1-yl)-4-oxo-4,7-dihydro-3H-pyrrolo[2,3-d]pyrimidin-5-yl)-3-fluoro-2-hydroxybenzamide] | 2.39 nM | 0.0347 µM | 0.0181 µM |
| CN1CCc2cc(NC(=O)Cn3cc(-c4cc(Cl)c(O)c(C(N)=O)c4)c4c(=O)n(C)cnc43)c(Cl)cc21 [Compound I-183] | 221 nM | 3.91 µM | 10 µM |
| C=Cc1cc(NC(=O)Cn2cc(-c3cc(Cl)c(O)c(C(N)=O)c3)c3c(=O)n(C)cnc32)c(Cl)cn1 [Compound I-209] | 51 nM | 0.296 µM | 0.343 µM |
| CN(C)C1CN(c2cc(NC(=O)Cn3cc(-c4cc(F)c(O)c(C(N)=O)c4)c4c(=O)n(C)cnc43)c(Cl)cn2)C1 [Compound I-433] | 8.42 nM | 0.548 µM | 0.201 µM |
| CN(C)c1cc(NC(=O)Cn2cc(-c3cc(F)c(O)c(C(N)=O)c3)c3c(=O)n(C)cnc32)c(Cl)cn1 [Compound I-288] | 9.47 nM | 0.181 µM | 0.128 µM |
| CC(C1CC1)N1CCN(c2cc(NC(=O)Cn3cc(-c4cc(C(N)=O)c(O)c(F)c4F)c4c(=O)n(C)cnc43)c(Cl)cn2)[C@@H](C)C1 (stereo partly drawn) [Compound I-393] | 33.6 nM | 0.266 µM | 0.222 µM |
| CC[C@@H]1CN(c2cc(NC(=O)Cn3cc(-c4cc(Cl)c(O)c(C(N)=O)c4)c4c(=O)n(C)cnc43)c(Cl)cn2)CCO1 [Compound I-202] | 23.9 nM | 0.211 µM | 0.156 µM |
| Cn1cnc2c(c(-c3cc(Cl)c(O)c(C(N)=O)c3)cn2CC(=O)Nc2cc(N3CCOCC3)nc(F)c2Cl)c1=O [Compound I-200] | 17.9 nM | 0.158 µM | 0.133 µM |
| CC(C)CN1CCN(c2cc(NC(=O)Cn3cc(-c4cc(C(N)=O)c(O)c(F)c4F)c4c(=O)n(C)cnc43)c(Cl)c(F)n2)[C@@H](C)C1 [Compound I-458] | 55.8 nM | 0.963 µM | 3.68 µM |
